Assay results reported in US20080014186A1, “Hla-A24 or Hla-A2 Binding Peptides of Parathyroid Hormone-Related Protein” (GREEN PEPTIDE CO., LTD., priority 2004, published 2008).
One block for each sequence: values may come before it.

Assays:
[1] = tested on: PBMCs of HLA-A2^+ healthy donors and prostate cancer patients; test: Assay for peptide-specific CTLs in PBMCs (IFN-γ ELISA, peptide-pulsed T2 cells); type: cell-based, human; conditions: for INF-γ production: T2 cells; for Total (donors with significant peptide-specific IFN-γ production / donors tested): HLA-A2^+ healthy donors; for Total (donors with significant peptide-specific IFN-γ production / donors tested) / Total (patients with significant peptide-specific IFN-γ production / patients tested): p < 0.05; for Total (patients with significant peptide-specific IFN-γ production / patients tested): HLA-A2^+ prostate cancer patients
[2] = tested on: IgG in plasma of HLA-A2^+ healthy donors and prostate cancer patients; test: Peptide-specific IgG in plasma by ELISA (HLA-A2-binding PTHrP peptides); set-up: species or system human; conditions: for IgG reactive to the peptide in plasma (difference of OD): 1:100-diluted plasma; for Total (IgG-positive donors / donors tested): HLA-A2^+ healthy donors; for Total (IgG-positive patients / patients tested): HLA-A2^+ prostate cancer patients
Experimental: Peptide-specific IgG levels in the plasma were measured by ELISA, as previously reported. In brief, peptide (20 μg/well)-immobilized plates were blocked with Block Ace (Yukijirushi, Tokyo, Japan) and washed with 0.05% Tween20-PBS, after which 100 μl/well of plasma sample diluted with 0.05% Tween20-Block Ace was added to the plate. After 2 hours incubation at 37° C., the plates were washed and further incubated for 2 hours with a 1:1000-diluted rabbit anti-human IgG (γ-chain-specific) (DAKO, Glostrup, Denmark). The plates were washed, and then 100 μl of 1:100-diluted goat anti-rabbit IgG-conjugated horseradish peroxidase (EnVision, DAKO) was added to each well, and the plates were then incubated at room temperature for 40 min. After the plates were washed once, 100 μl/well of tetramethyl benzidine substrate solution (KPL, Guildford, UK) was added, and the reaction was stopped by the addition of 1 M phosphoric acid. The values are shown as optical density (OD) units/ml, and responses to the HIV peptide were subtracted. IgG reactive to a corresponding PTHrP peptide was judged to be positive when the difference of the OD in 1:100-diluted plasma exceeded 0.05. The results that IgG reactive to either the PTHrP102-111 or the […] peptide was detected in 8 of 10 healthy donors and in 7 of 10 prostate cancers are shown in Table 2 hereinafter.
In a similar way to Example 3, it was examined whether IgGs reactive to peptides of PTHrP 42-51 and PTHrP 59-67 could be detected in the plasma of 10 healthy donors and 10 cancer patients. The cut-off value at 1:100-diluted plasma was ODO.054.

[3] = HLA-A2^+ healthy donor #1 (A0201)
[4] = HLA-A2^+ healthy donor #2 (A0201)
[5] = HLA-A2^+ healthy donor #3 (A0201)
[6] = HLA-A2^+ healthy donor #4 (A0201)
[7] = HLA-A2^+ healthy donor #5 (A0206)
[8] = HLA-A2^+ healthy donor #6 (A0206)
[9] = HLA-A2^+ healthy donor #7 (A0206)
[10] = HLA-A2^+ healthy donor #8 (A0206)
[11] = HLA-A2^+ healthy donor #9 (A0206)
[12] = HLA-A2^+ healthy donor #10 (A0207)
[13] = HLA-A2^+ prostate cancer patient #1 (A0206)
[14] = HLA-A2^+ prostate cancer patient #2 (A0210)
[15] = HLA-A2^+ prostate cancer patient #3 (A0210)
[16] = HLA-A2^+ prostate cancer patient #4 (A0206)
[17] = HLA-A2^+ prostate cancer patient #5 (A0206)
[18] = HLA-A2^+ prostate cancer patient #6 (A0207)
[19] = HLA-A2^+ prostate cancer patient #7 (A0206)
[20] = HLA-A2^+ prostate cancer patient #8 (A0206)
[21] = HLA-A2^+ prostate cancer patient #9 (A0201)
[22] = HLA-A2^+ prostate cancer patient #10 (A0201)
[23] = HLA-A2^+ prostate cancer patient #1
[24] = HLA-A2^+ prostate cancer patient #2
[25] = HLA-A2^+ prostate cancer patient #3
[26] = HLA-A2^+ prostate cancer patient #4
[27] = HLA-A2^+ prostate cancer patient #5
[28] = HLA-A2^+ prostate cancer patient #6
[29] = HLA-A2^+ prostate cancer patient #7
[30] = HLA-A2^+ prostate cancer patient #8
[31] = HLA-A2^+ prostate cancer patient #9
[32] = HLA-A2^+ prostate cancer patient #10

IgG reactive to the peptide in plasma (difference of OD) ([2]; HLA-A2^+ healthy donor #1): 0.0945 OD
IgG reactive to the peptide in plasma (difference of OD) ([2]; HLA-A2^+ healthy donor #2): 0.1338 OD
IgG reactive to the peptide in plasma (difference of OD) ([2]; HLA-A2^+ healthy donor #7): 0.0675 OD
Total (IgG-positive donors / donors tested) [2]: 3/10
IgG reactive to the peptide in plasma (difference of OD) [2, 25]: 0.0675 OD
IgG reactive to the peptide in plasma (difference of OD) [2, 32]: 0.0995 OD
Total (IgG-positive patients / patients tested) [2]: 2/10
Sequence: IQDLRRRFFL [PTHrP 51-60]
INF-γ production [1, 3]: 0 pg/mL
INF-γ production [1, 4]: 79 pg/mL
INF-γ production [1, 5]: 0 pg/mL
INF-γ production [1, 6]: 314 pg/mL
INF-γ production [1, 7]: 0 pg/mL
INF-γ production [1, 8]: 46 pg/mL
INF-γ production [1, 9]: 0 pg/mL
INF-γ production [1, 10]: 16 pg/mL
INF-γ production [1, 11]: 0 pg/mL
INF-γ production [1, 12]: 14 pg/mL
Total (donors with significant peptide-specific IFN-γ production / donors tested) [1]: 2/10
INF-γ production [1, 13]: 55 pg/mL
INF-γ production [1, 14]: 187 pg/mL
INF-γ production [1, 15]: 34 pg/mL
INF-γ production [1, 16]: 33 pg/mL
INF-γ production [1, 17]: 0 pg/mL
INF-γ production [1, 18]: 0 pg/mL
INF-γ production [1, 19]: 0 pg/mL
INF-γ production [1, 20]: 2 pg/mL
INF-γ production [1, 21]: 67 pg/mL
INF-γ production [1, 22]: 21 pg/mL
Total (patients with significant peptide-specific IFN-γ production / patients tested) [1]: 2/10
IgG reactive to the peptide in plasma (difference of OD) ([2]; HLA-A2^+ healthy donor #3): — (IgG reactive to a corresponding peptide was judged to be positive when a difference of OD in a 1:100-diluted plasma was more than 0.054.)
IgG reactive to the peptide in plasma (difference of OD) ([2]; HLA-A2^+ healthy donor #4): — (IgG reactive to a corresponding peptide was judged to be positive when a difference of OD in a 1:100-diluted plasma was more than 0.054.)
IgG reactive to the peptide in plasma (difference of OD) ([2]; HLA-A2^+ healthy donor #5): — (IgG reactive to a corresponding peptide was judged to be positive when a difference of OD in a 1:100-diluted plasma was more than 0.054.)
IgG reactive to the peptide in plasma (difference of OD) ([2]; HLA-A2^+ healthy donor #6): — (IgG reactive to a corresponding peptide was judged to be positive when a difference of OD in a 1:100-diluted plasma was more than 0.054.)
IgG reactive to the peptide in plasma (difference of OD) ([2]; HLA-A2^+ healthy donor #8): — (IgG reactive to a corresponding peptide was judged to be positive when a difference of OD in a 1:100-diluted plasma was more than 0.054.)
IgG reactive to the peptide in plasma (difference of OD) ([2]; HLA-A2^+ healthy donor #9): — (IgG reactive to a corresponding peptide was judged to be positive when a difference of OD in a 1:100-diluted plasma was more than 0.054.)
IgG reactive to the peptide in plasma (difference of OD) ([2]; HLA-A2^+ healthy donor #10): — (IgG reactive to a corresponding peptide was judged to be positive when a difference of OD in a 1:100-diluted plasma was more than 0.054.)
IgG reactive to the peptide in plasma (difference of OD) [2, 23]: — (IgG reactive to a corresponding peptide was judged to be positive when a difference of OD in a 1:100-diluted plasma was more than 0.054.)
IgG reactive to the peptide in plasma (difference of OD) [2, 24]: — (IgG reactive to a corresponding peptide was judged to be positive when a difference of OD in a 1:100-diluted plasma was more than 0.054.)
IgG reactive to the peptide in plasma (difference of OD) [2, 26]: — (IgG reactive to a corresponding peptide was judged to be positive when a difference of OD in a 1:100-diluted plasma was more than 0.054.)
IgG reactive to the peptide in plasma (difference of OD) [2, 27]: — (IgG reactive to a corresponding peptide was judged to be positive when a difference of OD in a 1:100-diluted plasma was more than 0.054.)
IgG reactive to the peptide in plasma (difference of OD) [2, 28]: — (IgG reactive to a corresponding peptide was judged to be positive when a difference of OD in a 1:100-diluted plasma was more than 0.054.)
IgG reactive to the peptide in plasma (difference of OD) [2, 29]: — (IgG reactive to a corresponding peptide was judged to be positive when a difference of OD in a 1:100-diluted plasma was more than 0.054.)
IgG reactive to the peptide in plasma (difference of OD) [2, 30]: — (IgG reactive to a corresponding peptide was judged to be positive when a difference of OD in a 1:100-diluted plasma was more than 0.054.)
IgG reactive to the peptide in plasma (difference of OD) [2, 31]: — (IgG reactive to a corresponding peptide was judged to be positive when a difference of OD in a 1:100-diluted plasma was more than 0.054.)

IgG reactive to the peptide in plasma (difference of OD) ([2]; HLA-A2^+ healthy donor #2): 0.102 OD
IgG reactive to the peptide in plasma (difference of OD) ([2]; HLA-A2^+ healthy donor #4): 0.155 OD
IgG reactive to the peptide in plasma (difference of OD) ([2]; HLA-A2^+ healthy donor #8): 0.121 OD
Total (IgG-positive donors / donors tested) [2]: 3/10
IgG reactive to the peptide in plasma (difference of OD) [2, 24]: 0.078 OD
IgG reactive to the peptide in plasma (difference of OD) [2, 28]: 0.0895 OD
IgG reactive to the peptide in plasma (difference of OD) [2, 29]: 0.0795 OD
Total (IgG-positive patients / patients tested) [2]: 3/10
Sequence: LLHDKGKSI [PTHrP 43-51]
INF-γ production [1, 3]: 17 pg/mL
INF-γ production [1, 4]: 21 pg/mL
INF-γ production [1, 5]: 23 pg/mL
INF-γ production [1, 6]: 27 pg/mL
INF-γ production [1, 7]: 0 pg/mL
INF-γ production [1, 8]: 0 pg/mL
INF-γ production [1, 9]: 0 pg/mL
INF-γ production [1, 10]: 0 pg/mL
INF-γ production [1, 11]: 0 pg/mL
INF-γ production [1, 12]: 0 pg/mL
Total (donors with significant peptide-specific IFN-γ production / donors tested) [1]: 0/10
INF-γ production [1, 13]: 40 pg/mL
INF-γ production [1, 14]: 56 pg/mL
INF-γ production [1, 15]: 185 pg/mL
INF-γ production [1, 16]: 0 pg/mL
INF-γ production [1, 17]: 39 pg/mL
INF-γ production [1, 18]: 51 pg/mL
INF-γ production [1, 19]: 0 pg/mL
INF-γ production [1, 20]: 23 pg/mL
INF-γ production [1, 21]: 14 pg/mL
INF-γ production [1, 22]: 0 pg/mL
Total (patients with significant peptide-specific IFN-γ production / patients tested) [1]: 1/10
IgG reactive to the peptide in plasma (difference of OD) ([2]; HLA-A2^+ healthy donor #1): — (IgG reactive to a corresponding peptide was judged to be positive when a difference of OD in a 1:100-diluted plasma was more than 0.054.)
IgG reactive to the peptide in plasma (difference of OD) ([2]; HLA-A2^+ healthy donor #3): — (IgG reactive to a corresponding peptide was judged to be positive when a difference of OD in a 1:100-diluted plasma was more than 0.054.)
IgG reactive to the peptide in plasma (difference of OD) ([2]; HLA-A2^+ healthy donor #5): — (IgG reactive to a corresponding peptide was judged to be positive when a difference of OD in a 1:100-diluted plasma was more than 0.054.)
IgG reactive to the peptide in plasma (difference of OD) ([2]; HLA-A2^+ healthy donor #6): — (IgG reactive to a corresponding peptide was judged to be positive when a difference of OD in a 1:100-diluted plasma was more than 0.054.)
IgG reactive to the peptide in plasma (difference of OD) ([2]; HLA-A2^+ healthy donor #7): — (IgG reactive to a corresponding peptide was judged to be positive when a difference of OD in a 1:100-diluted plasma was more than 0.054.)
IgG reactive to the peptide in plasma (difference of OD) ([2]; HLA-A2^+ healthy donor #9): — (IgG reactive to a corresponding peptide was judged to be positive when a difference of OD in a 1:100-diluted plasma was more than 0.054.)
IgG reactive to the peptide in plasma (difference of OD) ([2]; HLA-A2^+ healthy donor #10): — (IgG reactive to a corresponding peptide was judged to be positive when a difference of OD in a 1:100-diluted plasma was more than 0.054.)
IgG reactive to the peptide in plasma (difference of OD) [2, 23]: — (IgG reactive to a corresponding peptide was judged to be positive when a difference of OD in a 1:100-diluted plasma was more than 0.054.)
IgG reactive to the peptide in plasma (difference of OD) [2, 25]: — (IgG reactive to a corresponding peptide was judged to be positive when a difference of OD in a 1:100-diluted plasma was more than 0.054.)
IgG reactive to the peptide in plasma (difference of OD) [2, 26]: — (IgG reactive to a corresponding peptide was judged to be positive when a difference of OD in a 1:100-diluted plasma was more than 0.054.)
IgG reactive to the peptide in plasma (difference of OD) [2, 27]: — (IgG reactive to a corresponding peptide was judged to be positive when a difference of OD in a 1:100-diluted plasma was more than 0.054.)
IgG reactive to the peptide in plasma (difference of OD) [2, 30]: — (IgG reactive to a corresponding peptide was judged to be positive when a difference of OD in a 1:100-diluted plasma was more than 0.054.)
IgG reactive to the peptide in plasma (difference of OD) [2, 31]: — (IgG reactive to a corresponding peptide was judged to be positive when a difference of OD in a 1:100-diluted plasma was more than 0.054.)
IgG reactive to the peptide in plasma (difference of OD) [2, 32]: — (IgG reactive to a corresponding peptide was judged to be positive when a difference of OD in a 1:100-diluted plasma was more than 0.054.)
